# How the values were obtained:
# C2C12 myotubes = experiment: Total protein content (protein accretion) in C2C12 myotubes; format: cell-based, Mouse; settings: whatever the dose (1, 10, 50 µM), 3 days of supplementation, vs control
# Experimental: (§1) Mouse myoblasts of the C2C12 cell line (ATCC) were seeded at a plating density of 7000 cells/cm2 in 6-well plates. They were grown in DMEM high glucose (4.5g/l) supplemented with gentamycin (50 µg/mL), amphotericin (50 µg/mL), and fetal calf serum (10%). Terminal differentiation was induced at cell confluence by lowering the medium serum concentration (0.5%).
# (§2) When indicated, FuFA-F2 was added to the culture medium at the indicated concentration. For the differentiation studies, FuFA-F2 was added at the confluence at the same time as the change in media condition. Three doses of FuFA-F2 were studied at a final concentration of 1, 10, or 50 µM. Human insulin was used at a concentration of 100 nM.
# (§3) Protein levels were assessed by Western blotting. Total proteins were measured using the Bio-Rad protein assay (Hercules, CA, USA) according to the manufacturer's instructions. Total proteins were lysed in RIPA buffer (20mM Tris, 150mM NaCl, 1mM EDTA, 1% NP40, pH 7.5 + complete cocktail protease inhibitors + Pierce phosphatase inhibitors tablet). 40 µg of cell extracts were loaded and blotted onto a nitrocellulose membrane. The membranes were washed, blocked with 5% nonfat milk and incubated in primary antibody overnight at 4°C. […]
# C57Bl6 mice = experiment: Oral gavage supplementation in C57Bl6 mice: food intake, body weight, body composition (EchoMRI), muscle weight; format: in vivo; settings: 3 and a half weeks
# Experimental: Male C57Bl/6J wild-type mice were obtained from Janvier at 12 weeks of age and were randomly assigned to one of the two groups based on body weight. Mice were housed 2 per cage and maintained on a 12-hour light/dark cycle (lights on at 7:30 pm). Food and water were provided ad libitum. Enrichment (nesting cotton squares) was provided in each cage. Mice were treated once daily by oral gavage with vehicle (50% PEG-400, 0.5% Tween 80, and 49.5% distilled water) or FuFA-F2 (20 mg/kg). All animal experiments were performed according to European directives (86/609/CEE and 2010/63/CEE) and approved by the regional animal experimentation ethics committe: Région Languedoc-Roussillon (No36). Our institutional guidelines for the care and use of laboratory animals were observed. Our animal facility is approved by the Departmental Veterinary Services (No. E34-172-10, 2019/03/04) and the Ministry of Research (DUO No. 7053, 2020/02/26). according to the European Directive 210-63-EU, mice were observed daily for the general health status and mortality scoring.
# To investigate in vivo the potential impact a furan-containing compound under the form of a triacylgycerol of FuFA-F2 on muscle characteristics, C57Bl6 mice were supplemented by oral gavage with vehicle or FuFA-F2 (20mg/kg) for 3 and a half weeks (Fig. 6A). […] However, fat mass was similar between the two groups (Fig. 6E).
# [1] = tested on: myosin heavy chain (MyHC); experiment: Slow and fast MyHC protein levels by Western blot in C2C12 myotubes; format: cell-based, Mouse
# Experimental: as §1, §2, §3
# (Figure 5A), commonly used as a quantitative marker of intact mitochondria. […]
# ULK1 = ULK1 phosphorylation and total level by Western blot in C2C12 myotubes; format: cell-based, Mouse; settings: highest dose (50 µM)
# Experimental: as §1, §2
# Protein levels were assessed by Western blotting. Total proteins were measured using the Bio-Rad protein assay (Hercules, CA, USA) according to the manufacturer's instructions. […]
# AMP activated protein kinase (AMPK) is a crucial cellular energy sensor protein and is activated when intracellular ATP level decreases to regulate autophagy initiation (Hardie et al., 2012, Nat Rev Mol Cell Bio, Vol. 13 (4) : 251-262). […] The autophagy-related signaling was further evaluated by measuring the MTORC1 mediated phosphorylation […] at Ser757 which disrupts the interaction between ULK1 and AMPK. […] Therefore, the autophagic flux was assessed by measuring the conversion of LC3-I to LC3-II, through lipidation.
# [2] = 20mg/kg oral gavage once daily, triacylglycerol of FuFA-F2, vs vehicle
# [3] = 20mg/kg oral gavage, vs vehicle
structure (smiles),measurement,setting,value
CCCCCc1cc(C)c(CCCCCCCCC(=O)O)o1 [FuFA-F2],total protein content in C2C12 myotubes,C2C12 myotubes,significantly increase
same,body weight,C57Bl6 mice; [2],significantly higher
same,food intake,C57Bl6 mice; [2],ate more
same,weight of the gastrocnemius,C57Bl6 mice; [3],significantly increased
same,weight of the quadriceps,C57Bl6 mice; [3],significantly increased
same,fat mass,"C57Bl6 mice; EchoMRI, 20mg/kg oral gavage, between the two groups",similar
same,lean mass,"C57Bl6 mice; EchoMRI, 20mg/kg oral gavage, vs control mice",greater
same,expression of slow MyHC,[1]; 10 µM,significantly increased
same,fast MyHC,[1]; highest dose (50 µM),decrease
same,ULK1 phosphorylation at Ser757,ULK1,decreased
same,total Ulk level,ULK1,also decreased

# — patent EP4385508A1, “FURAN FATTY ACIDS FOR ENHANCING MUSCLE MASS” (Centre de Coopération Internationale en Recherche …, priority 2022, dated 2024)
